In ChEMBL document CHEMBL4308877, “Thiazole, thio and semicarbazone derivatives against tropical infective diseases: Chagas disease, human African trypanosomiasis (HAT), leishmaniasis, and malaria” (Eur J Med Chem, 2019):
Values belong to the compound of their own block, whether it stands above or below them.

Legend:
[1] = system: Trypanosoma brucei brucei; assay: Anti-parasitic activity against Trypanosoma brucei brucei 427 after 72 hrs by Alamar Blue assay; format: functional, organism-based; settings: Trypanosoma brucei, 427, 72 h
[2] = Selectivity index, ratio of LC50 for salina eggs to IC50 for Trypanosoma brucei brucei 427; format: toxicity; settings: Artemia salina (brine shrimp), read-out: Ratio IC50
[3] = system: Trypanosoma brucei; assay: Anti-parasitic activity against wild type Trypanosoma brucei; format: functional, organism-based
[4] = system: Trypanosoma brucei; assay: Anti-parasitic activity against type 1 nitroreductase over-expressing Trypanosoma brucei; format: functional, organism-based
[5] = Selectivity index, ratio of IC50 for human THP1 cells to IC50 for Trypanosoma brucei overexpressing the type 1 nitroreductase; format: toxicity; settings: read-out: Ratio IC50
[6] = Selectivity index, ratio of IC50 for human SK-N-SH cells to IC50 for wild type Trypanosoma brucei; format: toxicity; settings: read-out: Ratio IC50
[7] = system: Trypanosoma brucei brucei; assay: Anti-parasitic activity against Trypanosoma brucei brucei AnTat1.1E; format: functional, organism-based
[8] = Selectivity index, ratio of IC50 for HEK293T cells to IC50 for Trypanosoma brucei brucei AnTat1.1E; format: toxicity; settings: human
[9] = Selectivity index, ratio of IC50 for HEK293T cells to IC50 for Trypanosoma brucei rhodesiense STIB 851; format: toxicity; settings: human
[10] = system: Trypanosoma brucei gambiense; assay: Anti-parasitic activity against Trypanosoma brucei gambiense MBA; format: functional, organism-based
[11] = Selectivity index, ratio of IC50 for HEK293T cells to IC50 for Trypanosoma brucei gambiense MBA; format: toxicity; settings: human
[12] = system: Trypanosoma brucei rhodesiense; assay: Anti-parasitic activity against Trypanosoma brucei rhodesiense STIB 851; format: functional, organism-based
[13] = Selectivity index, ratio of EC50 for human U-937 cells to IC50 for amastigote stage of EGFP-fused Leishmania panamensis MHOM/CO/87/UA140; format: toxicity; settings: read-out: Selectivity Index
[14] = system: Leishmania panamensis; assay: Anti-parasitic activity against amastigote stage of EGFP-fused Leishmania panamensis MHOM/CO/87/UA140 infected in human U-937 cells after 72 hrs by flow cytometric analysis; format: functional, organism-based; settings: MHOM/CO/87/UA140, U-937, 72 h
[15] = Selectivity index, ratio of CC50 for mouse J774A1 cells to IC50 for axenic amastigote stage of Leishmania amazonensis MHOM/BR/Josefa; format: toxicity; settings: read-out: Ratio CC50/IC50
[16] = Selectivity index, ratio of CC50 for mouse J774A1 cells to IC50 for promastigote stage of Leishmania amazonensis MHOM/BR/Josefa; format: toxicity; settings: read-out: Ratio CC50/IC50
[17] = system: Leishmania amazonensis; assay: Anti-parasitic activity against promastigote stage of Leishmania amazonensis MHOM/BR/Josefa […] after 72 hrs by Neubauer chamber method; format: functional, organism-based
[18] = system: Leishmania amazonensis; assay: Anti-parasitic activity against axenic amastigote stage of Leishmania amazonensis MHOM/BR/Josefa […] after 72 hrs by Neubauer chamber method; format: functional, organism-based
[19] = Selectivity index, ratio of CC50 for mouse J774A1 cells to IC50 for amastigote stage of Leishmania amazonensis infected in BALB/c mouse Peritoneal macrophages; format: toxicity; settings: read-out: Ratio CC50/IC50
[20] = system: Leishmania amazonensis; assay: Anti-parasitic activity against amastigote stage of Leishmania amazonensis MHOM/BR/Josefa infected in BALB/c mouse Peritoneal macrophages after 48 hrs by Giemsa staining-based method; format: functional, organism-based
[21] = target: Platelet-derived growth factor receptor alpha (Homo sapiens) (UniProt P16234); assay: Inhibition of recombinant GST-tagged human PDGFRalpha (550 to 1089 residues) cytoplasmic domain expressed in baculovirus expression system at 10 uM using peptide as substrate preincubated for 1 hr followed by substrate addition measured after 20 mins by HTRF assay relative to control
Sequence of Platelet-derived growth factor receptor alpha (Homo sapiens) (P16234 whole entry, the tested form may be a part): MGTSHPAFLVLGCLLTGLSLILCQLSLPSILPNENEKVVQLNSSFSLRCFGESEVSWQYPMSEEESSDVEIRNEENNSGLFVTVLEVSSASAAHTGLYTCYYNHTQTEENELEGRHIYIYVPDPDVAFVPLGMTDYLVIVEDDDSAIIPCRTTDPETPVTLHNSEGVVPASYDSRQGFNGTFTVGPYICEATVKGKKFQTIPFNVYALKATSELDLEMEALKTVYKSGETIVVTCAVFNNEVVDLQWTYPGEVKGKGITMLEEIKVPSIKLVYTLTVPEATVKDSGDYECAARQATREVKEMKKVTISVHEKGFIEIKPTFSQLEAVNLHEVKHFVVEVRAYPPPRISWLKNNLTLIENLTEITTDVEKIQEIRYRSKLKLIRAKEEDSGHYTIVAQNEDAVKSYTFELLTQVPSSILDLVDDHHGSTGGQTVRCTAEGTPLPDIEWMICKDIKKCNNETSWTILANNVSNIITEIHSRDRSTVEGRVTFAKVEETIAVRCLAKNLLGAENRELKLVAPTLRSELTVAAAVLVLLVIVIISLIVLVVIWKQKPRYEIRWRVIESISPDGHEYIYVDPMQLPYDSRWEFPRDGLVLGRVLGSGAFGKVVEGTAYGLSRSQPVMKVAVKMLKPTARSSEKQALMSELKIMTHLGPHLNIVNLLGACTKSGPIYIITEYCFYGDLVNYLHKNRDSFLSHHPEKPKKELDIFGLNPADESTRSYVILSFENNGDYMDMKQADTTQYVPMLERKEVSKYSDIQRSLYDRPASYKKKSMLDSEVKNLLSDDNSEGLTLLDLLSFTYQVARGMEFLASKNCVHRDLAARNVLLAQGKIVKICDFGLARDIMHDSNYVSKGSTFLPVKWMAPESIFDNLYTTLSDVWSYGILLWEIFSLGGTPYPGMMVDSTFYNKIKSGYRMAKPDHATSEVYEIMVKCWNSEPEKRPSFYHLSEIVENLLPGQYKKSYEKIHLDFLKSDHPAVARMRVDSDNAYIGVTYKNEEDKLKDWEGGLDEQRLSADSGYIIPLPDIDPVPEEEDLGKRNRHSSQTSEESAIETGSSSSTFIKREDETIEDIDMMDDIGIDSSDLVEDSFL

[22] = system: HT-29; assay: Cytotoxicity against human HT-29 cells assessed as reduction in cell viability after 72 hrs by MTT assay; format: functional, cell-based; settings: HT-29, 72 h
[23] = system: MKN-45; assay: Cytotoxicity against human MKN45 cells assessed as reduction in cell viability after 72 hrs by MTT assay; format: functional, cell-based; settings: MKN-45, 72 h
[24] = target: RAF proto-oncogene serine/threonine-protein kinase (Homo sapiens) (UniProt P04049); assay: Inhibition of c-Raf (unknown origin) at 10 uM using peptide as substrate preincubated for 1 hr followed by substrate addition measured after 20 mins by HTRF assay relative to control
Sequence of RAF proto-oncogene serine/threonine-protein kinase (Homo sapiens) (P04049 whole entry): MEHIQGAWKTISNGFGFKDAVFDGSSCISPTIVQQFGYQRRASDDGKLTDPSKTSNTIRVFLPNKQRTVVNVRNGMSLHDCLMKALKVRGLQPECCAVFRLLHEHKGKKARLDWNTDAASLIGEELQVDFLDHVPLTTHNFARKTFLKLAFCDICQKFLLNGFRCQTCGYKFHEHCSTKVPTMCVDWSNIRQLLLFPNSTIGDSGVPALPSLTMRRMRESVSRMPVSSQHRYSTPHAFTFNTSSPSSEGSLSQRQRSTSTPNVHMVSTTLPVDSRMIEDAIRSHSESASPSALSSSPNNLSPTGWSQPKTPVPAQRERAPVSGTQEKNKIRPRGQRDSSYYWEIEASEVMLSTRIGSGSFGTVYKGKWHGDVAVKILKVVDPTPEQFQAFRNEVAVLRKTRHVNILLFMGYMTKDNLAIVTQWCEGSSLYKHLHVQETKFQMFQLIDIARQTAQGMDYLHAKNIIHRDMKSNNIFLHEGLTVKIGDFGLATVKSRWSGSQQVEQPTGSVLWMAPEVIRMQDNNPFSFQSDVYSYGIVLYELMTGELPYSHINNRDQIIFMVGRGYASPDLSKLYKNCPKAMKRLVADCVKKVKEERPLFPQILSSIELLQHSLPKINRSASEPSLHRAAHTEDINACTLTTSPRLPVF

[25] = target: Vascular endothelial growth factor receptor 2 (Homo sapiens) (UniProt P35968); assay: Inhibition of recombinant GST-tagged human KDR (789 to end residues) expressed in baculovirus infected Sf9 cells at 10 uM using peptide as substrate preincubated for 1 hr followed by substrate addition measured after 20 mins by HTRF assay relative to control
Sequence of Vascular endothelial growth factor receptor 2 (Homo sapiens) (P35968 whole entry): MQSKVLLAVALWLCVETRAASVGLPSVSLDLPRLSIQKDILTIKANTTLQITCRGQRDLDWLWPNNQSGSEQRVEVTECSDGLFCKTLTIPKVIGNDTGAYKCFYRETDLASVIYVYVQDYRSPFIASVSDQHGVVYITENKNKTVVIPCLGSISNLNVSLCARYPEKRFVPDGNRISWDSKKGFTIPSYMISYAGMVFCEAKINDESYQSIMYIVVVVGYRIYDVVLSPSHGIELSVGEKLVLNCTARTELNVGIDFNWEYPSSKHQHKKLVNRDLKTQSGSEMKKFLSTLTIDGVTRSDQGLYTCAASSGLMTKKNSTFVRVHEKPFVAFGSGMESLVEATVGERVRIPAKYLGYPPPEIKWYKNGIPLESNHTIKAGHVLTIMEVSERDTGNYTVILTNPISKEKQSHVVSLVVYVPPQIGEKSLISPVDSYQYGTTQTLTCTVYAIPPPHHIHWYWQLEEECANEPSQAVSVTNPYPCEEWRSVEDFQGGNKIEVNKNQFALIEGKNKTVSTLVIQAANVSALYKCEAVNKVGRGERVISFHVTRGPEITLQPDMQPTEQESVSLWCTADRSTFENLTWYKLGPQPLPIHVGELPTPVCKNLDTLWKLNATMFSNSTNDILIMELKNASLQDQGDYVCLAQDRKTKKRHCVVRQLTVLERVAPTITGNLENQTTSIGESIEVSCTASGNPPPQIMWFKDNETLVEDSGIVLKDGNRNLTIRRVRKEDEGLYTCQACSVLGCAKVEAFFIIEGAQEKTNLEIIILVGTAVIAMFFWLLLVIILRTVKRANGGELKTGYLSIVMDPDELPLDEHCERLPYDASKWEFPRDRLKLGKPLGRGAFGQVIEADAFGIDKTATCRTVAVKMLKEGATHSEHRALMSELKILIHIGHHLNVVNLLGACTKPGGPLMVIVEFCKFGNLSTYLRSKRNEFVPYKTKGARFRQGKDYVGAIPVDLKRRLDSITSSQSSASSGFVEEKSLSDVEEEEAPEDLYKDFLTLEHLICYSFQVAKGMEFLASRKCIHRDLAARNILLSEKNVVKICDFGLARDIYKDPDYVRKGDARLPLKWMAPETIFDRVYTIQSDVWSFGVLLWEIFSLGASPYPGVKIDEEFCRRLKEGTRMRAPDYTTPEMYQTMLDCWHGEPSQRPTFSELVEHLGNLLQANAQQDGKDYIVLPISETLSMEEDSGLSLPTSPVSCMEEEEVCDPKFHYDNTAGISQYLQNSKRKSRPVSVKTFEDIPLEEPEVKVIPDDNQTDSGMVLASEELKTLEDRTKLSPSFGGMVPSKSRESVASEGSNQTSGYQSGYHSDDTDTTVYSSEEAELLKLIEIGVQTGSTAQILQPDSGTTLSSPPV

[26] = system: NCI-H460; assay: Cytotoxicity against human H460 cells assessed as reduction in cell viability after 72 hrs by MTT assay; format: functional, cell-based; settings: NCI-H460, 72 h
[27] = system: WI-38; assay: Cytotoxicity against human WI38 cells assessed as reduction in cell viability after 72 hrs by MTT assay; format: cell-based; settings: WI-38, 72 h
[28] = target: Hepatocyte growth factor receptor (Homo sapiens) (UniProt P08581); assay: Inhibition of recombinant N-terminal His6-tagged human c-MET (974 to end residues) expressed in baculovirus infected Sf21 cells at 10 uM using peptide as substrate preincubated for 1 hr followed by substrate addition measured after 20 mins by HTRF assay relative to control
Sequence of Hepatocyte growth factor receptor (Homo sapiens) (P08581 whole entry): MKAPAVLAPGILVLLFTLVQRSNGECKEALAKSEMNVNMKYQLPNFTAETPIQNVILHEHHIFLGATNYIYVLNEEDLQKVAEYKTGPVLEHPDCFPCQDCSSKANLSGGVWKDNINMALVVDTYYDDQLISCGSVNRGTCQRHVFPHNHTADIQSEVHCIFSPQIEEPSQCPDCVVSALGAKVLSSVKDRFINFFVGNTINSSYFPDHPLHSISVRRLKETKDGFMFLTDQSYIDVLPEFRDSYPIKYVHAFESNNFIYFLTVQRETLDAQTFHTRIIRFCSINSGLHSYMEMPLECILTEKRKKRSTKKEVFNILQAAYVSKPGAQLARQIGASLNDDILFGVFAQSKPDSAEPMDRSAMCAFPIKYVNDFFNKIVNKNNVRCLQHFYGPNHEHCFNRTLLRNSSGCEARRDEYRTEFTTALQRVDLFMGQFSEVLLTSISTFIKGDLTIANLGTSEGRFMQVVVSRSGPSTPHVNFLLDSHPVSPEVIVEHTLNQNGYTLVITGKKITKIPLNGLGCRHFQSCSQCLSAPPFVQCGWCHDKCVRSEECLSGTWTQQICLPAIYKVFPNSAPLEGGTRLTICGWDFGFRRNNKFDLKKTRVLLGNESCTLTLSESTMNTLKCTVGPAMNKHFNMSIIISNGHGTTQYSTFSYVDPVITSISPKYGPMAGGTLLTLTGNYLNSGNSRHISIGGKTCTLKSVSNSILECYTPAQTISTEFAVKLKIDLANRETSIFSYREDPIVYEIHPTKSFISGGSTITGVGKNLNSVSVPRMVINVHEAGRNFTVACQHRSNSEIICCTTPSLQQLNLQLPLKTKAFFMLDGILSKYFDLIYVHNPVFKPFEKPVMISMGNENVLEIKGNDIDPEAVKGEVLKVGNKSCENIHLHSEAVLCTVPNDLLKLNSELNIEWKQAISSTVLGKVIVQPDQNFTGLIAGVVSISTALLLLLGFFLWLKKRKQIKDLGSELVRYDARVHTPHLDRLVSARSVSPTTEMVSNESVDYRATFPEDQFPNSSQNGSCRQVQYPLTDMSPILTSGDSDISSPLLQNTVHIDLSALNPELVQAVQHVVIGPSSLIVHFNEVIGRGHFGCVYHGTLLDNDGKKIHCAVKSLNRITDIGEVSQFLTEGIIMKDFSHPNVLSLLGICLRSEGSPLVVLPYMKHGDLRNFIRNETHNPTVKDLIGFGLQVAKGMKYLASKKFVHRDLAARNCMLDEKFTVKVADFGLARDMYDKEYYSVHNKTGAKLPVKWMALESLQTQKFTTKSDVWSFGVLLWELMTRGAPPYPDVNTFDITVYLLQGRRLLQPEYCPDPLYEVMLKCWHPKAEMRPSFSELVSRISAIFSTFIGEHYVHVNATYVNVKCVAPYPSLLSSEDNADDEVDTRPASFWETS

[29] = system: Leishmania amazonensis; assay: Anti-parasitic activity against promastigote stage of Leishmania amazonensis WHOM/00 LTB 0016 after 96 hrs; format: functional, organism-based; settings: WHOM/00 LTB 0016, 96 h
[30] = Selectivity index, ratio of CC50 for mouse macrophages to IC50 for promastigote stage of Leishmania amazonensis WHOM/00 LTB 0016; format: toxicity; settings: read-out: Ratio CC50/IC50
[31] = system: Leishmania amazonensis; assay: Anti-parasitic activity against amastigote stage of Leishmania amazonensis WHOM/00 LTB 0016 infected in mouse macrophages after 24 hrs; format: functional, organism-based; settings: WHOM/00 LTB 0016, 24 h
[32] = Selectivity index, ratio of CC50 for mouse macrophages to IC50 for amastigote stage of Leishmania amazonensis WHOM/00 LTB 0016; format: toxicity; settings: read-out: Ratio CC50/IC50
[33] = system: Trypanosoma cruzi; assay: Anti-parasitic activity against amastigote stage of Trypanosoma cruzi Tulahuen CL2 infected in human MRC5 cells after 7 days by […] reporter gene assay; format: functional, organism-based; settings: Tulahuen CL2, MRC5, 168 h
[34] = Selectivity index, ratio of cytotoxic activity for African green monkey Vero cells to IC50 for amastigote stage of Trypanosoma cruzi Tulahuen CL2; format: toxicity
[35] = system: Trypanosoma brucei brucei; assay: Anti-parasitic activity against trypomastigote stage of Trypanosoma brucei brucei; format: functional, organism-based
[36] = Selectivity index, ratio of IC50 for human WI38 cells to IC50 for trypomastigote stage of Trypanosoma brucei brucei; format: toxicity; settings: read-out: Ratio IC50
[37] = system: MDA-MB-231; assay: Cytotoxicity against human MDA-MB-231 cells assessed as reduction in cell viability after 72 hrs by MTT assay; format: functional, cell-based; settings: MDA-MB-231, 72 h
[38] = system: A549; assay: Cytotoxicity against human A549 cells assessed as reduction in cell viability after 72 hrs by MTT assay; format: functional, cell-based; settings: A549, 72 h

IC50 [7]: 92 nM
IC50 [10]: 61 nM
IC50 [12]: 263 nM
Compound: O=c1c2ccccc2sn1-c1ccccc1
selectivity ratio [8]: 174
selectivity ratio [9]: 60.8
selectivity ratio [11]: 262

EC50 [14]: 16400 nM
Compound: O=C(N/N=C1\CC(c2ccccc2)Sc2ccccc21)c1ccncc1 (stereo unspecified)
selectivity ratio [13]: 33.9

IC50 [17]: 3800 nM
IC50 [18]: 8000 nM
IC50 [20]: 7700 nM
Compound: CC1=CC[C@@H](C(C)(C)NC(=S)N/N=C/c2ccc([N+](=O)[O-])cc2)CC1
selectivity ratio [15]: 11.1
selectivity ratio [16]: 23.4
selectivity ratio [19]: 11.5

inhibition [21]: 14%
inhibition [24]: 70.7%
inhibition [25]: 14%
inhibition [28]: 14%
Compound: O=C(N/N=C/c1c(Cl)cccc1Cl)Nc1ccc(Oc2ccnc(-n3cnnn3)c2)c(F)c1
IC50 [22]: 80 nM
IC50 [23]: 970 nM
IC50 [26]: 360 nM
IC50 [27]: 3960 nM

IC50 [29]: 3500 nM
IC50 [31]: 34300 nM
Compound: COc1ccc(/C(COc2ccccc2)=N\NC(N)=S)cc1
selectivity ratio [30]: 44.4
selectivity ratio [32]: 4.5

IC50 [35]: 10900 nM
Compound: CC1=C/C(=N/NC(=S)Nc2ccccc2)C(C(C)C)CC1 (stereo unspecified)
selectivity ratio [36]: 12.3

Second part, the compound before the results:

Compound: S=C(NN=C(c1ccccc1)c1ccccc1)Nc1ccccc1
IC50 [1]: 8480 nM
selectivity ratio [2]: 43.2

Compound: CC(=O)Nc1ncc([N+](=O)[O-])s1 [NITHIAMIDE]
IC50 [3]: 4670 nM
IC50 [4]: 580 nM
selectivity ratio [5]: 149
selectivity ratio [6]: > 21

Compound: CCCC(=O)Nc1ncc([N+](=O)[O-])s1
IC50 [3]: 6470 nM
IC50 [4]: 640 nM
selectivity ratio [5]: > 156
selectivity ratio [6]: > 15

Compound: Nc1ccccc1/C(=N\NC(=S)Nc1ccccc1)c1ccccc1
IC50 [1]: 2830 nM
selectivity ratio [2]: 15

Compound: CCOc1cccc2sc(N(Cc3cccnc3)C(=O)C3CCCCC3)nc12
IC50 [33]: 160 nM
selectivity ratio [34]: > 200

Compound: COc1cc2c(Oc3ccc(/C=N/NC(=O)Nc4ccccc4F)cc3F)ccnc2cc1OCCCN1CCCCC1
IC50 [37]: 770 nM
IC50 [22]: 59 nM
IC50 [23]: 16 nM
IC50 [38]: 9 nM
